Results as given in patent US20220274945A1, “SUBSTITUTED THIOPHENE CARBOXAMIDES AND DERIVATIVES THEREOF AS MICROBICIDES” (Bayer Aktiengesellschaft, priority 2019, published 2022).

Legend:
[1] = system: Xanthomonas campestris pv. campestris; experiment: In vivo preventive test on Xanthomonas campestris pv. campestris (black rot on cabbage); conditions: 31 ppm, cabbage plants sprayed 72 hours before inoculation; evaluated 8 or 10 days after inoculation
Method: The tested active ingredients were prepared by homogenization in a mixture of acetone/Dimethyl sulfoxide/Tween®, and then diluted with water to obtain the desired active material concentration.
The young plants of cabbage were treated by spraying the active ingredient prepared as described above.
Control plants were treated only with an aqueous solution of acetone/Dimethyl sulfoxide/Tween®.
After 72 hours, the plants were contaminated by spraying the leaves with an aqueous bacteria suspension of Xanthomonas campestris pv. campestris. The contaminated cabbage plants were incubated for 8 or 10 days at 27° C. at 95% relative humidity.
The test was evaluated 8 or 10 days after the inoculation. 0% means an efficacy which corresponds to that of the control plants while an efficacy of 100% means that no disease was observed.

[2] = system: salicylate responsive promoter sequence of the PR1 (pathogenesis-related protein I) gene (AT2G14610); experiment: Induction of defense gene expression in Arabidopsis thaliana (PR1 promoter-GFP reporter plants); assay type: in vivo; conditions: 300 ppm, sprayed; 3rd day after spraying; mock treated leaves set as 1.00
Method: Arabidopsis thaliana reporter plants containing the coding sequence of a green fluorescent protein (GFP) linked to the salicylate responsive promoter sequence of the PR1 (pathogenesis-related protein I) gene (AT2G14610) were grown for five days and then sprayed with compounds. On the 3rd day after spraying, plant fluorescence was assessed with a MacroFluo instrument from Leica Microsystems (Wetzlar, Germany). Fluorescences were quantified with the Meta-Morph Microscopy Automation & Image Analysis Software (Molecular Devices, Sunnyvale, Calif., United States).
Background fluorescence in mock treated leaves was set as 1.00.

Row | Structure (SMILES) | efficacy [1] | relative fluorescence value [2]
1 | O=C(NC1(C(=O)O)CC1)c1cc(Br)c(Br)s1 [CMP1] | 10% | –
2 | O=C(O)c1ccccc1O [Salicylic acid] | – | 2.70
3 | O=C(NC1(C(=O)O)CC1)c1sc(Br)c(Br)c1Br [I.14] | at least 80% | –
